Laboratory results published in patent publication US10441562B2, “Aromatic farnesyl compound and application thereof” (INSTITUTE OF MICROBIOLOGY, CHINESE ACADEMY OF SCIENCES, priority 2015, dated 2019).
Marks after values point to notes of the source that are not given here.

Legend:
[1] = system: hyperglycemia KK-A^y mice; experiment: blood lipid and liver function of hyperglycemia KK-A^y mice; assay type: in vivo; details: 3 weeks, metformin 8 g/kg, group 11
Experimental: (§1) Materials: accurately weigh the 2 compounds S13 and S28 discussed in example 2, and then add 0.5% CMC-Na to make the solution of 5 mg/ml used for activity test. KK-A^y mice are purchased from Chinese Academy of Medical Sciences & Peking Union Medical College Institute of Animal Studies. Experiments are carried out after adapting to the environment (T=20-24° C., constant humidity: 50-60%, 12 hours light exposure (8:00-20:00), soundproof, free feeding and drinking) for 1 week. Glucometer is purchased from Roche.
(§2) Methods: 10 male C57 mice of 6-8 weeks of 20-22 g are used as normal control group (1). Detect the fasting glucose of male KK-A^y mice, which are 6-8 weeks with the weight of 28-32 g, and divide them into different groups according to the blood sugar level and body weight: (2) model control group, (3) which is administered by compound S13 with the dose of 1 mg/kg, (4) which is administered by compound S13 with the dose of 5 mg/kg, (5) which is administered by compound S13 with the dose of 10 mg/kg, (6) which is administered by compound S13 with the dose of 20 mg/kg, (7) which is administered by compound S28 with the dose of 1 mg/kg, (8) which is administered by compound S28 with the dose of 5 mg/kg, (9) which is administered by compound S28 with the dose of 10 mg/kg, (10) which is administered by compound S28 with the dose of 20 mg/kg, (11) which is administered by metformin with the dose of 8 g/kg, (12) which is administered by compound S13 with the dose of 2.5 mg/kg and metformin with the dose of 4 g/kg, (13) which is administered by compound S13 with the dose of 5 mg/kg and metformin with the dose of 4 g/kg, (14) which is administered by compound S28 with the dose of 2.5 mg/kg and metformin with the dose of […], (15) which is administered by compound S28 with the dose of 5 mg/kg and metformin with the dose of […]. Each group has 8 mice, and is administrated successively for 3 weeks. Model control group is given with equal amounts of 0.5% CMC-Na.
4) After the last administration, the mice are executed under anesthesia, and blood is taken to be centrifuged at 3000 rpm in 4[…]. Serum total cholesterol, low density lipoprotein and triglyceride TG are detected.

[2] = system: hyperglycemia KK-A^y mice; experiment: blood sugar of hyperglycemia KK-A^y mice; assay type: in vivo; parameters: blood sugar: unit not given here; details: metformin 8 g/kg, group 11
Experimental: as §1, §2
1) Effects of drugs on blood sugar: at the first day after administration, the mice are fasted for 2 hours and blood is collected (0 h) to detect the fasting blood sugar. After the compound is given to the mice by intragastric administration for 30 min, blood is collected from tip of tail to detect the blood sugar level.
(§3) 2) Effects on body weight and blood sugar: the body weight of mice are recorded at the 2th, 5th, 8th, 11th, 14th, 17th, 20th day after administration, and blood is collected from tip of tail to detect the blood sugar level (see table 10).

[3] = system: hyperglycemia KK-A^y mice; experiment: glucose tolerance test (OGTT) in hyperglycemia KK-A^y mice; assay type: in vivo; details: OGTT 12th day, glucose 2.0 g/kg oral, metformin 8 g/kg, group 11
Experimental: as §1, with “KK-A^y” for “Materials: accurately weigh the 2 compounds S13 and S28 discussed in example 2, and then add 0.5% CMC-Na to make the solution of 5 mg/ml used for activity test. KK-A^y”
Each group has 8 mice, and is administrated successively for 3 weeks. Model control group is given with equal amounts of 0.5% CMC-Na.
3) Glucose tolerance test (OGTT): glucose tolerance is detected at the 12th day after administration. The mice are fasted for 12 hours and blood is collected (0 h). After being given with glucose (2.0 g/kg) by oral administration, blood is collected from tip of tail to detect the blood sugar level after 30 min, 60 min and 120 min respectively (see table 11).

[4] = body weight of hyperglycemia KK-A^y mice; assay type: in vivo; details: metformin 8 g/kg, group 11
Experimental: as §1, §2, §3

dipeptidyl peptidase-4 = target: T1, dipeptidyl peptidase-4 (Homo sapiens, UniProt P27487); experiment: dipeptidyl peptidase-4 inhibitory activity test in vitro (DPP-4 inhibitor screening kit); assay type: biochemical
T1 construct: purchased
T1 sequence (P27487 whole entry, species assumed): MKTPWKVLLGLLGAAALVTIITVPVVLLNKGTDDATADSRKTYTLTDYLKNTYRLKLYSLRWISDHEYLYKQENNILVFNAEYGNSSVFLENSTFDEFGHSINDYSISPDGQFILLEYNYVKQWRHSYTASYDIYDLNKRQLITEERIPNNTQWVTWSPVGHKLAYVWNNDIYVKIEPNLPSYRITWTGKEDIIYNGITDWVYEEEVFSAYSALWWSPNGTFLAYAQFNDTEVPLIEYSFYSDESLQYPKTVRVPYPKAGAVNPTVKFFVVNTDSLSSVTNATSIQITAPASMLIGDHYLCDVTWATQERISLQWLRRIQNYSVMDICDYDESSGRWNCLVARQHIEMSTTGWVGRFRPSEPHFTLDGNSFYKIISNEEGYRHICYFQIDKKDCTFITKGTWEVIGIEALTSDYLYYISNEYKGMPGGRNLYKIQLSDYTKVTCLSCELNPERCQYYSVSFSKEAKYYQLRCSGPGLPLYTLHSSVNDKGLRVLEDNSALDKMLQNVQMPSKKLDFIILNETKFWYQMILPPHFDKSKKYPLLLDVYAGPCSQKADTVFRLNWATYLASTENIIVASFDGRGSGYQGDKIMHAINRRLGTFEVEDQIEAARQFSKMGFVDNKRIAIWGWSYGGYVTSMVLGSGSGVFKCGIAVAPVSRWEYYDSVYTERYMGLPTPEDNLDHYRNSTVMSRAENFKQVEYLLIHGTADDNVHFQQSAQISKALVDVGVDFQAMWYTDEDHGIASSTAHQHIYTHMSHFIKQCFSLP
Text: The above compounds are detected by DPP-4 inhibitor screening kit.

HMG-CoA reductase = target: T2, HMG-CoA reductase (Homo sapiens, UniProt P04035); experiment: HMG-CoA reductase inhibitory activity test in vitro; assay type: biochemical
T2 sequence (P04035 426-888 limits assumed): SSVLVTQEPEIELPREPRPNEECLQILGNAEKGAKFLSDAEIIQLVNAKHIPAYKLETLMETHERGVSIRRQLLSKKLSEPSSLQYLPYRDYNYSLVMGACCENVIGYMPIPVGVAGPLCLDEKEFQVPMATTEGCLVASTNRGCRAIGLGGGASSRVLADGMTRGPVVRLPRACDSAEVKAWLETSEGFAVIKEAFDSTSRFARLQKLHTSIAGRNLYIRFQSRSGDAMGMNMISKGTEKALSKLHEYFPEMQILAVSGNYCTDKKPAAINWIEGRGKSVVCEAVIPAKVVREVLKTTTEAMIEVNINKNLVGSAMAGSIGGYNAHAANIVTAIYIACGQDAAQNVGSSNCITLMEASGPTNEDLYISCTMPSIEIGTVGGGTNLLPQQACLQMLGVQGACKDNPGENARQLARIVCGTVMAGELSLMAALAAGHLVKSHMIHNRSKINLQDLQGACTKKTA
Experimental: Add 25 μL HMG-CoA reductase water solution (0.2 U/mL), 25 μL NADPH water solution (0.2 U/mL) and 24 μL phosphate buffer (50 mM, pH 7.0) into 1 μL different concentration of the above test solution. The mixed solution is standed for 10 min at room temperature, and then 25 μL HMG-CoA is added into the mixed solution. After the solution is incubated at 37∞ for 30 min and centrifuged at 5000 rpm for 5 minutes, 80 uL supernatant is added into 96-well plates and the absorbance is detected at 550 nm.
(§4) Repeat each of the above experiment groups for 3 times, and then average the results.

aldose reductase = aldose reductase (Homo sapiens, UniProt P15121); experiment: aldose reductase inhibitory activity test in vitro; assay type: biochemical
Experimental: Experimental procedure: the following reagents are added into 96-well plates in sequence and the mixture ratios of different groups are as followings:
Test group: 10 μL compound solution+25 μL (0.1 mM) NADPH solution+25 μL PBS buffer solution+15 μL aldose reductase diluent
Blank group: 25 μL (0.1 mM) NADPH solution+35 μL PBS buffer solution+15 μL aldose reductase diluent
Background group: 25 μL (0.1 mM) NADPH solution+60 μL PBS buffer solution+15 μL aldose reductase diluent
After adding the reagents, the 96-well plate is standed for 10 min at room temperature to make the compound and the enzyme react completely. Add 25 μL 10 mM D, L glyceraldehyde solution which is used as substrate into the groups except for background group, and incubate the solution at 37 °C for 30 min. Then detect the optical density of each well at 340 nm.

α-glucosidase = target: T3, α-glucosidase (Saccharomyces cerevisiae, UniProt P53341); experiment: α-glucosidase inhibitory activity test in vitro; assay type: biochemical; details: read-out: α-glucosidase inhibitory activity (IC50)
T3 construct: purchased Sigma Corporation G5003
T3 sequence (P53341 whole entry): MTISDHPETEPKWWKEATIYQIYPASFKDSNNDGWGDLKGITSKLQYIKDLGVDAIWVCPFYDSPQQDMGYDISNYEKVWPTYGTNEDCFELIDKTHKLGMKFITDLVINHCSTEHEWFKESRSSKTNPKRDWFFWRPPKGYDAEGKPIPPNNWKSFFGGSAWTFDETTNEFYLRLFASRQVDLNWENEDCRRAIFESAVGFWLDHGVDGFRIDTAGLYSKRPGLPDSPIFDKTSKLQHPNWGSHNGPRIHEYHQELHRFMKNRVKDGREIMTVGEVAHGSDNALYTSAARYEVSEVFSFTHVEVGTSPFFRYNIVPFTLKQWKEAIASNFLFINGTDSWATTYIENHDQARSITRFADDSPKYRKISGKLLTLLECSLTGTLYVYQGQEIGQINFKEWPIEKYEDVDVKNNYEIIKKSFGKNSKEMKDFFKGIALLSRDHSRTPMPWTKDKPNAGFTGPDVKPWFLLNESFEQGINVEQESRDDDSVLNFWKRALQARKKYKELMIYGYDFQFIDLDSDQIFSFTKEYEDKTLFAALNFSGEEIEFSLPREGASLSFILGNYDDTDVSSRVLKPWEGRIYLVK
Experimental: Add 25 μL α-glucosidase water solution (0.2 U/mL) and 175 μL phosphate buffer (50 mM, pH 7.0) into 25 μL different concentration of the above test solutions. The mixed solution is standed for 10 min at room temperature, and then 25 μL 4-nitrophenyl-α-D-glucopyranoside water solution (2.5 mM) is added into the mixed solution. After the solution is incubated at 37 °C for 30 min and centrifuged at 5000 rpm for 5 minutes, 150 uL supernatant is added into 96-well plates and the absorbance is detected at 405 nm.
Blank group: the test solution is replaced by 25 μL phosphate buffer (50 mM, pH 7.0); blank control group: the test solution is replaced by 25 μL phosphate buffer (50 mM, pH 7.0), meanwhile α-glucosidase water solution is replaced by 25 μL phosphate buffer (50 mM, pH 7.0); sample control group: α-glucosidase water solution is replaced by 25 μL phosphate buffer (50 mM, pH 7.0).
as §4
IC50=[CL(IH−50)+CH(50−IL)]/(IH−IL) CL: low concentration value; CH: high concentration value; IH: inhibition rate in high concentration; IL: inhibition rate in low concentration

[5] = system: hyperglycemia mice induced by alloxan; experiment: blood sugar of hyperglycemia mice induced by alloxan; assay type: in vivo, Kunming species mice
Experimental: Blood glucose determination kit (batch number 20140403) is purchased from Nanjing Jiancheng Bioengineering Institute. Methods: after being acclimatized for 1 week, 10 randomly selected Kunming species male mice of SPF level of 20±2 g are used as control group, while the other 50 mice are given alloxan to make model by intraperitoneal injection according to body weight 220 mg/kg.

[6] = target: T4, protein tyrosine phosphatase 1B (PTP-1B) (Homo sapiens, UniProt P18031); experiment: PTP-1B inhibitory activity test in vitro; assay type: biochemical
T4 sequence (P18031 1-435): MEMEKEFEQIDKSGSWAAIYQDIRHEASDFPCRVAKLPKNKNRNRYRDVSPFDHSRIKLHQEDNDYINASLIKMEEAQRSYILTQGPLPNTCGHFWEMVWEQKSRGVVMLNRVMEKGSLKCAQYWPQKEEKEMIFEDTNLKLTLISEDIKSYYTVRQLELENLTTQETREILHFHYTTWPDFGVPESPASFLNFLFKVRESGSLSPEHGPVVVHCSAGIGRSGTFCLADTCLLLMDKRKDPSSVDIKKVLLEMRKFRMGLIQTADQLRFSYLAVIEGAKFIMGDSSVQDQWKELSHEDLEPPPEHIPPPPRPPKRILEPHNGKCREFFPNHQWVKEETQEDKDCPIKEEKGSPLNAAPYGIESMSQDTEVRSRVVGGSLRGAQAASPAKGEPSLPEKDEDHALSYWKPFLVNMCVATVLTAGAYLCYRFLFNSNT
Experimental: Experimental procedure: the following reagents are added into 96-well plates in sequence and the mixture ratios of different groups are as followings: Test group: 50 μL compound solution+50 μL 170 μg/mL PTP-1B solution […] Blank group: 50 μL buffer solution+50 μL 170 μg/mL PTP-1B solution Background group: 50 μL compound solution+50 μL buffer solution After adding the reagents, the 96-well plate is […] for 10 min at room temperature to make the compound and the enzyme react completely. Add 50 μL 1 mM pNPP solution which is used as substrate and incubate the mixed solution at 37 °C for 30 min. Then add 50 μL 3M NaOH into each well of the plate to stop the reaction and the optical density is detected at […].

## CN(C)C(=N)N=C(N)N [metformin, reference compound]
[1]
  ALT: 89.6 U/L
  AST: 137.5 U/L
  HDL-C: 23.1 mg/dL
  LDL-C: 72 mg/dL
  SOD: 3.7 U/L
  TC: 176* mg/dL
  TG: 578 mg/dL
[2]; 1st day 0 h
  blood sugar at the 1st day, 0: 14.9
[2]; 1st day 30 min after intragastric administration
  blood sugar at the 1st day, 30 min: 9.85
[2]; 2st day
  blood sugar: 13.05
[2]; 5st day
  blood sugar: 13.9
[2]; 8st day
  blood sugar: 13.8
[2]; 11st day
  blood sugar: 13.5
[2]; 14st day
  blood sugar: 13.7
[2]; 17st day
  blood sugar: 13.5
[2]; 20st day
  blood sugar: 13.24
[3]; 0 min
  glucose tolerance, blood sugar 0 min: 6.5**
[3]; 30 min
  glucose tolerance, blood sugar 30 min: 12.8**
[3]; 60 min
  glucose tolerance, blood sugar 60 min: 10.47**
[3]; 120 min
  glucose tolerance, blood sugar 120 min: 7.41**
[4]; 2st day
  Body weight: 30.7 g
[4]; 5st day
  Body weight: 30.53 g
[4]; 8st day
  Body weight: 30.8 g
[4]; 11st day
  Body weight: 30.6 g
[4]; 14st day
  Body weight: 30.7 g
[4]; 17st day
  Body weight: 30.8 g
[4]; 20st day
  Body weight: 30.5 g

## CC(C)=CCC/C(C)=C/CCC1=C[C@@H](c2ccccc2)OC1=O [S16, (S,E)-3-(4,8-dimethylnona-3,7-dien-1-yl)-5-phenylfuran-2(5H)-one]
Dipeptidyl peptidase-4
  IC50: 12 µM
HMG-CoA reductase
  IC50: 3.6 µM
Aldose reductase
  IC50: 58.2 µM
α-glucosidase
  IC50: 0.23 µM
[5]; 50 mg/kg intragastric, 10 days, fasted 10 hours
  blood sugar after administration: 6.12** mmol/L
[5]; before administration
  blood sugar before administration: 15.25 mmol/L
[6]
  IC50: 12.5 µM
